In brackets after ≈: the same amount, converted by molar mass.
Columns and labels:
Test in all cases: ≥ marks a high value that may be exact or a test limit, other limits are often not marked, values filed in µg/mL are converted to µM
[1] = tested on: Acinetobacter baumannii ATCC 19606
Acinetobacter baumannii = tested on: Acinetobacter baumannii
[2] = tested on: Bacillus subtilis ATCC 6051
[3] = tested on: Candida albicans ATCC 90028
[4] = tested on: Cryptococcus neoformans ATCC 208821
[5] = tested on: Escherichia coli ATCC 25922
[6] = tested on: Klebsiella pneumoniae ATCC 13883
[7] = tested on: Klebsiella pneumoniae ATCC 700603
[8] = tested on: Klebsiella pneumoniae ATCC BAA-2146
Klebsiella pneumoniae = tested on: Klebsiella pneumoniae
[9] = tested on: Pseudomonas aeruginosa ATCC 27853
Pseudomonas aeruginosa = tested on: Pseudomonas aeruginosa
[10] = tested on: Staphylococcus aureus ATCC 43300
[11] = tested on: Candida albicans ATCC 10231
Candida krusei CBS 573 = tested on: Candida krusei CBS 573
[12] = tested on: Candida parapsilosis CBS 604
[13] = tested on: Saccharomyces cerevisiae SZMC 0644
[14] = tested on: Bacillus subtilis CMCC 63501
Candida albicans CA2761 = tested on: Candida albicans CA2761
[15] = tested on: Candida albicans CGMCC 2.2086
[16] = tested on: Candida krusei CGMCC 2.1857
[17] = tested on: Candida tropicalis CGMCC 2.1975
Escherichia coli EC183 = tested on: Escherichia coli EC183
Escherichia coli UB1005 = tested on: Escherichia coli UB1005
[18] = tested on: Salmonella enterica subsp. enterica serovar Typhimurium C77-31
[19] = tested on: Staphylococcus aureus ATCC 25923
[20] = tested on: Staphylococcus aureus ATCC 29213
[21] = tested on: Staphylococcus epidermidis ATCC 12228

Compound | MIC [5] | MIC [14] | MIC (Candida albicans CA2761) | MIC [15] | MIC [16] | MIC [17] | MIC (Escherichia coli EC183) | MIC (Escherichia coli UB1005) | MIC [18] | MIC [19] | MIC [20] | MIC [21] | other results
CC[C@H](C)[C@@H]1NC(=O)CNC(=O)[C@H](CCCN=C(N)N)NC(=O)[C@H](Cc2ccc(O)cc2)NC(=O)[C@H](CO)NC(=O)[C@H](C(C)C)NC(=O)[C@H](CCCN=C(N)N)NC(=O)[C@H](Cc2ccccc2)NC(=O)[C@@H](NC(=O)[C@H](Cc2c[nH]c3ccccc23)NC(=O)[C@@H](N)CCCCN)CSSC[C@@H](C(=O)N[C@@H](CCCN=C(N)N)C(=O)O)NC(=O)[C@H](CCCN=C(N)N)NC(=O)[C@H](CCCN=C(N)N)NC(=O)[C@H](Cc2ccc(O)cc2)NC(=O)[C@H](C)NC1=O [KWCFRVSYRGIAYRRCR] | 0.45 µM (≈ 0.999 µg/mL) |  |  |  |  |  |  |  |  |  |  |  | MIC [1]: 0.225 µM (≈ 0.5 µg/mL); MIC (Acinetobacter baumannii): 0.45 µM (≈ 0.999 µg/mL); MIC [2]: 0.0563 µM (≈ 0.125 µg/mL); MIC [3]: 0.901 µM (≈ 2 µg/mL); MIC [4]: 0.225 µM (≈ 0.5 µg/mL); MIC [6]: 1.8 µM (≈ 4 µg/mL); MIC [7]: 7.21 µM (≈ 16 µg/mL); MIC [8]: 3.6 µM (≈ 7.99 µg/mL); MIC (Klebsiella pneumoniae): 7.21 µM (≈ 16 µg/mL); MIC [9]: 3.6 µM (≈ 7.99 µg/mL); MIC (Pseudomonas aeruginosa): 7.21 µM (≈ 16 µg/mL); MIC [10]: 7.21 µM (≈ 16 µg/mL)
CC[C@H](C)[C@H](NC(=O)[C@@H]1CSSC[C@H](NC(=O)[C@H](CCCCN)NC(=O)CNC(=O)[C@H](CO)NC(=O)[C@@H](NC(=O)[C@@H](NC(=O)[C@H](CCCCN)NC(=O)[C@H](CO)NC(=O)[C@H](CCCCN)NC(=O)[C@H](CC(=O)O)NC(=O)[C@H](CO)NC(=O)[C@@H]2CCCN2C(=O)CNC(=O)[C@H](CO)NC(=O)[C@H](Cc2cnc[nH]2)NC(=O)[C@H](Cc2ccc(O)cc2)NC(=O)[C@@H](N)CCCCN)C(C)C)[C@@H](C)CC)C(=O)N[C@@H](CCC(=O)O)C(=O)N[C@@H](Cc2c[nH]c3ccccc23)C(=O)N[C@@H](CCC(N)=O)C(=O)NCC(=O)NCC(=O)N[C@@H](CCC(N)=O)C(=O)N[C@@H](CC(C)C)C(=O)N[C@@H](CC(N)=O)C(=O)N1)C(=O)N[C@@H](C)C(=O)N[C@H](C(=O)O)[C@@H](C)O [KYHSGPSDKSKVISGKCEWQGGQLNCIAT] |  |  |  |  |  |  |  |  |  |  |  |  | MIC [11]: > 32 µM; MIC (Candida krusei CBS 573): ≥ 32 µM; MIC [12]: ≥ 32 µM; MIC [13]: ≥ 32 µM
CC[C@H](C)[C@H](NC(=O)[C@H](Cc1c[nH]c2ccccc12)NC(=O)[C@H](CCCCN)NC(=O)[C@H](CC(C)C)NC(=O)[C@@H](NC(=O)[C@H](CCCCN)NC(=O)CNC(=O)[C@@H](NC(=O)[C@H](CCCCN)NC(=O)[C@H](CCCCN)NC(=O)[C@H](CC(C)C)NC(=O)[C@H](CCCN=C(N)N)NC(=O)[C@H](CCCCN)NC(=O)[C@H](CCCN=C(N)N)NC(=O)[C@@H](NC(=O)[C@H](CCCCN)NC(=O)[C@H](CCCCN)NC(=O)[C@@H](N)CCCN=C(N)N)[C@@H](C)O)[C@@H](C)CC)C(C)C)C(N)=O [RKKTRKRLKKIGKVLKWI] | 2 µM (≈ 4.56 µg/mL) | 1 µM (≈ 2.28 µg/mL) | 8 µM (≈ 18.2 µg/mL) | 16 µM (≈ 36.5 µg/mL) | 4 µM (≈ 9.12 µg/mL) | 2 µM (≈ 4.56 µg/mL) | 1 µM (≈ 2.28 µg/mL) | 2 µM (≈ 4.56 µg/mL) | 2 µM (≈ 4.56 µg/mL) | 8 µM (≈ 18.2 µg/mL) | 4 µM (≈ 9.12 µg/mL) | 4 µM (≈ 9.12 µg/mL) | 
CC[C@H](C)[C@H](NC(=O)[C@H](Cc1c[nH]c2ccccc12)NC(=O)[C@H](CCCCN)NC(=O)[C@H](CC(C)C)NC(=O)[C@@H](NC(=O)[C@H](CCCCN)NC(=O)CNC(=O)[C@@H](NC(=O)[C@H](CCCCN)NC(=O)[C@H](CCCCN)NC(=O)[C@H](CC(C)C)NC(=O)[C@H](CCCN=C(N)N)NC(=O)[C@H](CCCCN)NC(=O)[C@H](CCCN=C(N)N)NC(=O)[C@@H](NC(=O)[C@H](CCCCN)NC(=O)[C@H](CCCCN)NC(=O)[C@H](CCCN=C(N)N)NC(=O)[C@H](CC(C)C)NC(=O)[C@H](CCCN=C(N)N)NC(=O)[C@@H](N)CCCN=C(N)N)[C@@H](C)O)[C@@H](C)CC)C(C)C)C(N)=O [RRLRKKTRKRLKKIGKVLKWI] | 2 µM (≈ 5.41 µg/mL) | 1 µM (≈ 2.7 µg/mL) | 8 µM (≈ 21.6 µg/mL) | 8 µM (≈ 21.6 µg/mL) | 2 µM (≈ 5.41 µg/mL) | 1 µM (≈ 2.7 µg/mL) | 1 µM (≈ 2.7 µg/mL) | 2 µM (≈ 5.41 µg/mL) | 1 µM (≈ 2.7 µg/mL) | 4 µM (≈ 10.8 µg/mL) | 4 µM (≈ 10.8 µg/mL) | 4 µM (≈ 10.8 µg/mL) | 
